Source: PubChem BioAssay AID1963967 (Molecular Pharmacology Branch, DTP, NCI, 2024)

System: 855422-203-R-J1-PDC spheroids with HUVEC/MSC, viability
Experiment: Anticancer human tumor 855422-203-R-J1-PDC patient-derived bladder carcinoma cell line growth inhibition [PI3K]
Settings: for viability, T/C: stronger effect = lower value
Outline: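 Tumor cells were combined with HUVEC and MSCs into spheroids, then dosed with PI3K-inhibitor combinations over half-log ranges capped near clinical Cmax or 10 microM.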

[1] = curve of first compound, second compound 0.0316 µM
[2] = curve of first compound, second compound 0.1 µM
[3] = curve of first compound, second compound 0.316 µM
[4] = curve of first compound, second compound 1 µM
[5] = second compound 0.0316 µM, first compound 0.0316 µM
[6] = second compound 0.0316 µM, first compound 0.1 µM
[7] = second compound 0.0316 µM, first compound 0.316 µM
[8] = second compound 0.0316 µM, first compound 1 µM
[9] = second compound 0.0316 µM, first compound 3.16 µM
[10] = second compound 0.0316 µM, first compound 10 µM
[11] = second compound 0.1 µM, first compound 0.0316 µM
[12] = second compound 0.1 µM, first compound 0.1 µM
[13] = second compound 0.1 µM, first compound 0.316 µM
[14] = second compound 0.1 µM, first compound 1 µM
[15] = second compound 0.1 µM, first compound 3.16 µM
[16] = second compound 0.1 µM, first compound 10 µM
[17] = second compound 0.316 µM, first compound 0.0316 µM
[18] = second compound 0.316 µM, first compound 0.1 µM
[19] = second compound 0.316 µM, first compound 0.316 µM
[20] = second compound 0.316 µM, first compound 1 µM
[21] = second compound 0.316 µM, first compound 3.16 µM
[22] = second compound 0.316 µM, first compound 10 µM
[23] = second compound 1 µM, first compound 0.0316 µM
[24] = second compound 1 µM, first compound 0.1 µM
[25] = second compound 1 µM, first compound 0.316 µM
[26] = second compound 1 µM, first compound 1 µM
[27] = second compound 1 µM, first compound 3.16 µM
[28] = second compound 1 µM, first compound 10 µM
[29] = curve of first compound, second compound 0.00316 µM
[30] = curve of first compound, second compound 0.01 µM
[31] = second compound 0.00316 µM, first compound 0.0316 µM
[32] = second compound 0.00316 µM, first compound 0.1 µM
[33] = second compound 0.00316 µM, first compound 0.316 µM
[34] = second compound 0.00316 µM, first compound 1 µM
[35] = second compound 0.00316 µM, first compound 3.16 µM
[36] = second compound 0.00316 µM, first compound 10 µM
[37] = second compound 0.01 µM, first compound 0.0316 µM
[38] = second compound 0.01 µM, first compound 0.1 µM
[39] = second compound 0.01 µM, first compound 0.316 µM
[40] = second compound 0.01 µM, first compound 1 µM
[41] = second compound 0.01 µM, first compound 3.16 µM
[42] = second compound 0.01 µM, first compound 10 µM
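Note: agents incubated with spheroids for one week before read-out.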
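Throughout, for viability, T/C: 100% = DMSO vehicle-treated control wells.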

SMILES: Cn1nccc1Nc1nccc(-c2ccn(C(CO)c3ccc(Cl)c(F)c3)c(=O)c2)n1 (stereo not drawn) + Cc1nc(NC(=O)N2CCCC2C(N)=O)sc1-c1ccnc(C(C)(C)C(F)(F)F)c1
- IC50 [1]: 9.48 µM
- IC50 [2]: 8.22 µM
- IC50 [3]: 6.99 µM
- IC50 [4]: 4.27 µM
- IC50 (curve of first compound, second compound 3.16 µM): < 0.0316 µM
- IC50 (curve of first compound, second compound 10 µM): < 0.0316 µM
- viability, T/C [5]: 106%
- viability, T/C [6]: 95.9%
- viability, T/C [7]: 103%
- viability, T/C [8]: 89%
- viability, T/C [9]: 86.4%
- viability, T/C [10]: 47.5%
- viability, T/C [11]: 99.3%
- viability, T/C [12]: 93.3%
- viability, T/C [13]: 94.8%
- viability, T/C [14]: 85.9%
- viability, T/C [15]: 85%
- viability, T/C [16]: 43.2%
- viability, T/C [17]: 96%
- viability, T/C [18]: 89.3%
- viability, T/C [19]: 96.4%
- viability, T/C [20]: 92.2%
- viability, T/C [21]: 87.9%
- viability, T/C [22]: 32.8%
- viability, T/C [23]: 70.1%
- viability, T/C [24]: 70.1%
- viability, T/C [25]: 63.4%
- viability, T/C [26]: 67.5%
- viability, T/C [27]: 61.5%
- viability, T/C [28]: 17.9%
- viability, T/C (second compound 3.16 µM, first compound 0.0316 µM): 42.3%
- viability, T/C (second compound 3.16 µM, first compound 0.1 µM): 39.6%
- viability, T/C (second compound 3.16 µM, first compound 0.316 µM): 40.7%
- viability, T/C (second compound 3.16 µM, first compound 1 µM): 35.2%
- viability, T/C (second compound 3.16 µM, first compound 3.16 µM): 26.9%
- viability, T/C (second compound 3.16 µM, first compound 10 µM): 10.1%
- viability, T/C (second compound 10 µM, first compound 0.0316 µM): 24.6%
- viability, T/C (second compound 10 µM, first compound 0.1 µM): 21.6%
- viability, T/C (second compound 10 µM, first compound 0.316 µM): 19.4%
- viability, T/C (second compound 10 µM, first compound 1 µM): 14.4%
- viability, T/C (second compound 10 µM, first compound 3.16 µM): 8.05%
- viability, T/C (second compound 10 µM, first compound 10 µM): 4.78%

SMILES: CCCS(=O)(=O)Nc1ccc(F)c(C(=O)c2c[nH]c3ncc(-c4ccc(Cl)cc4)cc23)c1F + CC(Nc1ccc2c(c1)OCCn1cc(N3C(=O)OCC3C(F)F)nc1-2)C(N)=O
- IC50 [29]: 3.28 µM
- IC50 [30]: 4.55 µM
- IC50 [1]: 4.53 µM
- IC50 [2]: 3.58 µM
- IC50 [3]: 0.981 µM
- IC50 [4]: < 0.0316 µM
- viability, T/C [31]: 110%
- viability, T/C [32]: 89.8%
- viability, T/C [33]: 104%
- viability, T/C [34]: 76.1%
- viability, T/C [35]: 52.6%
- viability, T/C [36]: 0.17%
- viability, T/C [37]: 99.2%
- viability, T/C [38]: 85.2%
- viability, T/C [39]: 91.8%
- viability, T/C [40]: 78.5%
- viability, T/C [41]: 75.8%
- viability, T/C [42]: 0.24%
- viability, T/C [5]: 92%
- viability, T/C [6]: 79.9%
- viability, T/C [7]: 98.7%
- viability, T/C [8]: 87.8%
- viability, T/C [9]: 72.5%
- viability, T/C [10]: 0.18%
- viability, T/C [11]: 77.2%
- viability, T/C [12]: 82%
- viability, T/C [13]: 74.4%
- viability, T/C [14]: 72%
- viability, T/C [15]: 56.7%
- viability, T/C [16]: 0.28%
- viability, T/C [17]: 58.9%
- viability, T/C [18]: 53.3%
- viability, T/C [19]: 54.9%
- viability, T/C [20]: 48.9%
- viability, T/C [21]: 37.1%
- viability, T/C [22]: 0.2%
- viability, T/C [23]: 36.7%
- viability, T/C [24]: 36.5%
- viability, T/C [25]: 34.2%
- viability, T/C [26]: 34.8%
- viability, T/C [27]: 24.1%
- viability, T/C [28]: 0.31%

SMILES: CC(Cn1ccc(-c2ccc(C#N)c(Cl)c2)n1)NC(=O)c1cc(C(C)O)[nH]n1 (stereo not drawn)
- viability, T/C (compound 0.0316 µM): 108% [middle of 4 runs]
- viability, T/C (compound 0.1 µM): 96.9% [middle of 4 runs]
- viability, T/C (compound 0.316 µM): 110% [middle of 4 runs]
- viability, T/C (compound 1 µM): 93.5% [middle of 4 runs]
- viability, T/C (compound 3.16 µM): 97.2% [middle of 4 runs]
- viability, T/C (compound 10 µM): 86.2% [middle of 4 runs]
- IC50 (curve of compound): > 10 µM

SMILES: C=CC(=O)N1CCN(c2nc(=O)n(-c3c(C)ccnc3C(C)C)c3nc(-c4c(O)cccc4F)c(F)cc23)C(C)C1 (stereo not drawn) + CC(Nc1ccc2c(c1)OCCn1cc(N3C(=O)OCC3C(F)F)nc1-2)C(N)=O
- IC50 [29]: > 10 µM
- IC50 [30]: > 10 µM
- IC50 [1]: > 10 µM
- IC50 [2]: > 10 µM
- IC50 [3]: > 10 µM
- IC50 [4]: < 0.0316 µM
- viability, T/C [31]: 80.4%
- viability, T/C [32]: 95.2%
- viability, T/C [33]: 116%
- viability, T/C [34]: 101%
- viability, T/C [35]: 122%
- viability, T/C [36]: 121%
- viability, T/C [37]: 96.1%
- viability, T/C [38]: 98.5%
- viability, T/C [39]: 121%
- viability, T/C [40]: 99.5%
- viability, T/C [41]: 119%
- viability, T/C [42]: 120%
- viability, T/C [5]: 91.5%
- viability, T/C [6]: 81.1%
- viability, T/C [7]: 96.7%
- viability, T/C [8]: 90.6%
- viability, T/C [9]: 99.6%
- viability, T/C [10]: 99.5%
- viability, T/C [11]: 80.2%
- viability, T/C [12]: 66.1%
- viability, T/C [13]: 75.5%
- viability, T/C [14]: 89%
- viability, T/C [15]: 80.8%
- viability, T/C [16]: 93.4%
- viability, T/C [17]: 54.5%
- viability, T/C [18]: 54.4%
- viability, T/C [19]: 53.8%
- viability, T/C [20]: 75%
- viability, T/C [21]: 73.9%
- viability, T/C [22]: 68.8%
- viability, T/C [23]: 39%
- viability, T/C [24]: 30.9%
- viability, T/C [25]: 39.2%
- viability, T/C [26]: 44%
- viability, T/C [27]: 50.6%
- viability, T/C [28]: 38.7%
